Test results from patent US6528536B1, “Fungicidal mixtures” (BASF Aktiengesellschaft, priority 1997, dated 2003).

Tested on: powdery mildew of wheat (Erysiphe graminis forma specialis tritici)
Assay: Activity against powdery mildew of wheat (protective spray on wheat seedlings, greenhouse)
Assay type: in vivo
Conditions: evaluated after 7 days
Text: The active ingredients, separately or together, were formulated as a 10% emulsion in a mixture of 70% by weight of cyclohexanone, 20% by weight of Nekanil® LN (Lutensol® AP6, wetting agent having emulsifying and dispersing action, based on ethoxylated alkylphenols) and 10% by weight of Emulphor® EL (Emulan® EL, emulsifier based on ethoxylated fatty alcohols) and diluted with water to give the desired concentration.
Leaves of wheat seedlings cv. “Fr{umlaut over (u )}hgold” which had been grown in pots were sprayed to runoff point with an aqueous preparation of active ingredient which had been made from a stock solution comprising 10% of active compound, 63% of cyclohexanone and 27% of emulsifier, and, 24 hours after the spray coating had dried on, were dusted with spores of powdery mildew of wheat (Erysiphe graminis forma specialis tritici). […] After 7 days, the extent of mildew development was determined visually in % infection of the total leaf area.
Evaluation was carried out by determining the infected leaf areas in percent. […] The efficacy (E) was calculated as follows using Abbot's formula: […]
The expected degrees of action of the mixtures of the active ingredients were determined using Colby's formula [R. S. Colby, Weeds 15, (1967) 20-22] and compared with the observed degrees of action. […]

For `CO/N=C(/C(=O)OC)c1ccccc1COc1ccccc1C` [Ia], the “Efficacy in % of the untreated contol” value (0.3 ppm active ingredient in the spray liquor) was 0% and the “Efficacy in % of the untreated contol” value (0.6 ppm active ingredient in the spray liquor) was 0%.
